From US12018008B2, “Crystalline forms of an androgen receptor modulator” (Aragon Pharmaceuticals, Inc., priority 2012, dated 2024)

Legend:
[1] = Storage stability at 40° C. and 75% RH (XRPD); type: physicochemical; details: a week
[2] = Thermodynamic aqueous solubility; type: physicochemical; details: water, equilibrated at 25° C. for 24 hours, HPLC
Protocol: Aqueous solubility was determined by suspending sufficient compound in water to give a maximum final concentration of ≥20 mg·ml^−1 of the parent free-form of the compound. The suspension was equilibrated at 25° C. for 24 hours then the pH was measured. The suspension was then filtered through a glass fibre C filter into a 96 well plate unless stated otherwise. The filtrate was then diluted by a factor of 101. Quantitation was by HPLC with reference to a standard solution of approximately 0.1 mg·ml^−1 in DMSO. Different volumes of the standard, diluted and undiluted sample solutions were injected. The solubility was calculated using the peak areas determined by integration of the peak found at the same retention time as the principal peak in the standard injection.
Analysis was performed on an Agilent HP1100 series system equipped with a diode array detector and using ChemStation software vB.02.01-SR1.

[3] = Forcing drying conditions (60° C. at <20 mm Hg); type: physicochemical; details: 60° C. at <20 mm Hg for 8 days
[4] = Storage stability at 25° C. and 92% RH (XRPD); type: physicochemical; details: for Solid form stability on storage: 92% RH/25° C., on glass slide, after a week
Protocol: A sample of Form E was laid on a glass slide then placed in a box maintained at 92% RH/25° C.

[5] = Gravimetric vapour sorption (GVS); type: physicochemical; details: for Solid form stability under the GVS conditions (XRPD after GVS): 25° C., 0-90% RH
Protocol: Sorption isotherms were obtained using a SMS DVS Intrinsic moisture sorption analyser, controlled by SMS Analysis Suite software. The sample temperature was maintained at 25° C. by the instrument controls. The humidity was controlled by mixing streams of dry and wet nitrogen, with a total flow rate of 200 ml min^−1. The relative humidity was measured by a calibrated Rotronic probe (dynamic range of 1.0-100% RH), located near the sample. The weight change, (mass relaxation) of the sample as a function of % RH was constantly monitored by the microbalance (accuracy ±0.005 mg). Typically 5-20 mg of sample was placed in a tared mesh stainless steel basket under ambient conditions. The sample was loaded and unloaded at 40% RH and 25° C. (typical room conditions). A moisture sorption isotherm was performed as outlined below (2 scans giving 1 complete cycle). The standard isotherm was performed at 25° C. at 10% RH intervals over a 0.5-90% RH range. [table] The sample was recovered after completion of the isotherm and re-analyzed by XRPD.

[6] = Stability under ambient conditions; type: physicochemical; details: within a month
T877A AR mutant = target: T1, T877A AR mutant (Homo sapiens, UniProt P10275, T878A); details: cited from earlier work
T1 sequence (P10275 1-920 T878A): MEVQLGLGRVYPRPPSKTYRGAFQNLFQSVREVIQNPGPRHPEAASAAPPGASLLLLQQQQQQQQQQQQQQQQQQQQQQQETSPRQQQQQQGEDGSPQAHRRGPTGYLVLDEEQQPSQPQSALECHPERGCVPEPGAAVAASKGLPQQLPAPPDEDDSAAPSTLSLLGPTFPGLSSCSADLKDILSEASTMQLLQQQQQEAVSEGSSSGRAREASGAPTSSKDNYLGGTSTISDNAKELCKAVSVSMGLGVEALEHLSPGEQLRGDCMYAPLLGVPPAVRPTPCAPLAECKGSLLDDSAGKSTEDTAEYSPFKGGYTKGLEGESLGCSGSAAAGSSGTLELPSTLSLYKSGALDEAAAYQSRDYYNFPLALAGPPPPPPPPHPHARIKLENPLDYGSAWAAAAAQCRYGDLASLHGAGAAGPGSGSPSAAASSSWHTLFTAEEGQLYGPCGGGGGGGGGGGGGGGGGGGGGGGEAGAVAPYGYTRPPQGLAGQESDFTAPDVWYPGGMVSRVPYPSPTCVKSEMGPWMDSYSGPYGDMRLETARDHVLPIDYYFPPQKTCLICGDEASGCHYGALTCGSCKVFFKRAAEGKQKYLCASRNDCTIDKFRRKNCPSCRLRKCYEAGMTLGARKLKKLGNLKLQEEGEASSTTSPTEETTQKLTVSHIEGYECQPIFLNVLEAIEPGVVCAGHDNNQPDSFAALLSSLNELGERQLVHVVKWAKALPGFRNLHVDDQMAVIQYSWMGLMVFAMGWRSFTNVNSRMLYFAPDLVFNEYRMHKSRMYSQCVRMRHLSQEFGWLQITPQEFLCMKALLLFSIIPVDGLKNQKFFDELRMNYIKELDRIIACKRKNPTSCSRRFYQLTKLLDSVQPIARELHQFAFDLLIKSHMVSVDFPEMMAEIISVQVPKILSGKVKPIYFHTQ

SMILES: CNC(=O)c1ccc(N2C(=S)N(c3cnc(C#N)c(C(F)(F)F)c3)C(=O)C23CCC3)cc1F [Form A, 4-[7-(6-cyano-5-trifluoromethylpyridin-3-yl)-8-oxo-6-thioxo-5,7-diazaspiro[3.4]oct-5-yl]-2-fluoro-N-methylbenzamide]
- Solid form stability on storage [1]: stable
- Aqueous Solubility (mg/mL) [2]: about 0.01 mg/mL
- Behaviour under forcing conditions [3]: lost ethanol, the XRPD pattern of the material stayed the same

SMILES: CNC(=O)c1ccc(N2C(=S)N(c3cnc(C#N)c(C(F)(F)F)c3)C(=O)C23CCC3)cc1F [Form B, 4-[7-(6-cyano-5-trifluoromethylpyridin-3-yl)-8-oxo-6-thioxo-5,7-diazaspiro[3.4]oct-5-yl]-2-fluoro-N-methylbenzamide]
- Solid form stability on storage (XRPD before and after) ([4]; 25° C. and 92% RH for 12 days): stable
- Solid form stability on storage [1]: stable
- Solid form stability under the GVS conditions (XRPD after GVS) [5]: stable
- Hygroscopicity ([5]; GVS at 25° C.): not hygroscopic
- Uptake of water ([5]; GVS isotherm at 25° C., at 90% RH): less than 0.2%
- Aqueous Solubility (mg/mL) [2]: about 0.004 mg/mL

SMILES: CNC(=O)c1ccc(N2C(=S)N(c3cnc(C#N)c(C(F)(F)F)c3)C(=O)C23CCC3)cc1F [Form C, 4-[7-(6-cyano-5-trifluoromethylpyridin-3-yl)-8-oxo-6-thioxo-5,7-diazaspiro[3.4]oct-5-yl]-2-fluoro-N-methylbenzamide]
- Solid form stability on storage [1]: stable

SMILES: CNC(=O)c1ccc(N2C(=S)N(c3cnc(C#N)c(C(F)(F)F)c3)C(=O)C23CCC3)cc1F [Form D, 4-[7-(6-cyano-5-trifluoromethylpyridin-3-yl)-8-oxo-6-thioxo-5,7-diazaspiro[3.4]oct-5-yl]-2-fluoro-N-methylbenzamide]
- Solid form stability on storage [1]: stable

SMILES: CNC(=O)c1ccc(N2C(=S)N(c3cnc(C#N)c(C(F)(F)F)c3)C(=O)C23CCC3)cc1F [Form E, 4-[7-(6-cyano-5-trifluoromethylpyridin-3-yl)-8-oxo-6-thioxo-5,7-diazaspiro[3.4]oct-5-yl]-2-fluoro-N-methylbenzamide]
- Solid form stability on storage [4]: transformed to Form A and a small amount of Form B
- Solid form stability on storage [1]: transformed to Form A
- Solid form stability under the GVS conditions (XRPD after GVS) [5]: transformed to Form A

SMILES: CNC(=O)c1ccc(N2C(=S)N(c3cnc(C#N)c(C(F)(F)F)c3)C(=O)C23CCC3)cc1F [Form F, 4-[7-(6-cyano-5-trifluoromethylpyridin-3-yl)-8-oxo-6-thioxo-5,7-diazaspiro[3.4]oct-5-yl]-2-fluoro-N-methylbenzamide]
- Solid form stability on storage [1]: transformed to Form A
- Solid form stability under ambient conditions [6]: transformed to Form A

SMILES: CNC(=O)c1ccc(N2C(=S)N(c3cnc(C#N)c(C(F)(F)F)c3)C(=O)C23CCC3)cc1F [Form G, 4-[7-(6-cyano-5-trifluoromethylpyridin-3-yl)-8-oxo-6-thioxo-5,7-diazaspiro[3.4]oct-5-yl]-2-fluoro-N-methylbenzamide]
- Solid form stability on storage [1]: stable

SMILES: CNC(=O)c1ccc(N2C(=S)N(c3cnc(C#N)c(C(F)(F)F)c3)C(=O)C23CCC3)cc1F [Form H, 4-[7-(6-cyano-5-trifluoromethylpyridin-3-yl)-8-oxo-6-thioxo-5,7-diazaspiro[3.4]oct-5-yl]-2-fluoro-N-methylbenzamide]
- Solid form stability on storage [1]: stable

SMILES: CNC(=O)c1ccc(N2C(=S)N(c3cnc(C#N)c(C(F)(F)F)c3)C(=O)C23CCC3)cc1F [Form I, 4-[7-(6-cyano-5-trifluoromethylpyridin-3-yl)-8-oxo-6-thioxo-5,7-diazaspiro[3.4]oct-5-yl]-2-fluoro-N-methylbenzamide]
- Solid form stability on storage [4]: transformed to Form B

SMILES: CNC(=O)c1ccc(N2C(=S)N(c3cnc(C#N)c(C(F)(F)F)c3)C(=O)C23CCC3)cc1F [Form J, 4-[7-(6-cyano-5-trifluoromethylpyridin-3-yl)-8-oxo-6-thioxo-5,7-diazaspiro[3.4]oct-5-yl]-2-fluoro-N-methylbenzamide]
- Solid form stability on storage [4]: transformed to Form B

SMILES: CC(C)(O)C(=O)Nc1ccc([N+](=O)[O-])c(C(F)(F)F)c1 [hydroxyflutamide]
- Activity in T877A AR mutant (T877A AR mutant): act as AR agonists
